Assay results reported in ChEMBL document CHEMBL1149743, “Linear diterpenes from the Caribbean sponge Myrmekioderma styx” (J Nat Prod, 1992).
In brackets after ≈: the same amount, converted by molar mass.

What was measured:
[1] = (§1) Toxicity against Artemia salina after 24 hrs; assay type: organism-based; settings: in vivo
[2] = system: Artemia salina; experiment: as §1; assay type: organism-based; settings: in vivo, 24 h

## C=CC(C)(O)/C=C/C=C(\C)CC/C=C(\C)CC(=O)C=C(C)C (centres undefined) [STYXENOL A]
[1]
  LC50 at 24 h: 154 µg/mL (≈ 509 µM)

## C=CC(C)(O)/C=C/C=C(\C)CC/C=C(\C)CCC=C(C)C (centres undefined)
[2]
  Activity: Toxic

## C=CC(C)(O)/C=C/C=C(\C)CC/C=C(\C)CC(=O)CC(C)C (centres undefined)
[1]
  LC50 at 24 h: 3 µg/mL (≈ 9.85 µM)

## C=CC(C)(O)/C=C/C=C(\C)CCC/C(C)=C\C(=O)C=C(C)C (centres undefined)
[1]
  LC50 at 24 h: 163 µg/mL (≈ 539 µM)
